Source: US12264139B2, “Aryl sulfonamides as BLT1 antagonists” (Merck Sharp & Dohme LLC, priority 2015, dated 2025)

Biological target: T1, human BLT1 receptor (Homo sapiens, UniProt Q15722)
T1 construct: expressed in transfected cells; host or cells: HEK293
Assay: BLT-1 cAMP Assay
Type: cell-based
Settings: HEK293 cells recombinantly expressing human BLT1; antagonist activity vs forskolin 4 μM and LTB4 2 nM; cAMP (CisBio kit)
Method: The ability of compounds to antagonize the human BLT1 receptor was determined using a kit to measure changes in intracellular cyclic AMP levels (cAMP dynamic assay kit, Cisbio Cat. No. 62AM4PEC). […] The cell suspension was centrifuged at 200×g for 10 min and then resuspended in fresh assay medium to a density of 2.5×10^5 cells/mL. […] All subsequent liquid additions were performed using a BIORAPTR (FRD; Beckman Coulter). Next, 5 μL of cell suspension was added and incubated for 20 min. at 37° C. and 5% CO2 in a humidified plastic tray.
The levels of cAMP were detected using the CisBio kit following the manufacturer's instructions: cAMP-d2 vial was reconstituted with distilled water and then diluted accordingly with conjugate & lysis buffer. 5 µL of cAMP-d2 working solution was added to all of the wells of the assay plate. cAMP-Cryptate vial was reconstituted with distilled water and then diluted accordingly with conjugate & lysis buffer. 5 µL of cAMP-Cryptate working solution were added to the assay plate. The assay plate was shaken for 3 minutes and incubated at room temperature for 45 minutes, then read on Perkin Elmer Envision. cAMP standard curve and fit data were plotted using a 4 parameter dose response curve fitting algorithm to fit curve. […] After normalization to treated and untreated controls, the percent effect of signal at each compound concentration was calculated. The plot of percent effect versus the log of compound concentration was fit with a 4-parameter concentration response equation to calculate EC50 values.

T1 sequence (Q15722 whole entry): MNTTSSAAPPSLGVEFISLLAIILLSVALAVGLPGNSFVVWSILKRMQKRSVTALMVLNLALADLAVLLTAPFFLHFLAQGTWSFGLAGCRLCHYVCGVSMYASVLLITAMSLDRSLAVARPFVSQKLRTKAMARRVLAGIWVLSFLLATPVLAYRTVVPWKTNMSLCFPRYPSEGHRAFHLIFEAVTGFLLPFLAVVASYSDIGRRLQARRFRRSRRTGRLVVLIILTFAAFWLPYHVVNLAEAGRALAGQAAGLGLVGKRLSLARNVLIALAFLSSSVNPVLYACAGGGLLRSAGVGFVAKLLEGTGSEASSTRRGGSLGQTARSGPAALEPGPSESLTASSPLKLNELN

SMILES | EC50 [nM]
O=S(=O)(Nc1ccccc1-c1ccc2c(c1)OC[C@@H](Cc1ccc(-c3ccccc3)cn1)[C@@H]2O)C(F)(F)F (single isomer, unassigned) [Example 40, (2-((3R,4S or 3S,4R)-4-hydroxy-3-((5-phenylpyridin-2-yl)methyl)chroman-7-yl)phenyl)((trifluoromethyl)sulfonyl)amide] | 18
CC(c1csc(-c2ccccc2)n1)[C@@H]1COc2cc(-c3ccccc3NS(=O)(=O)C(F)(F)F)ccc2[C@H]1O (single isomer, unassigned) [Example 97] | 268
O=S(=O)(Nc1ccccc1-c1ccc2c(c1)OC[C@H](Cc1cn(-c3ccccc3)nn1)[C@H]2O)C(F)(F)F (racemic) [Example 14, 1,1,1-Trifluoro-N-(2-{(rac-trans)-4-hydroxy-3-[(1-phenyl-1H-1,2,3-triazol-4-yl)methyl]-3,4-dihydro-2H-chromen-7-yl}phenyl)methanesulfonamide] | 101
O=S(=O)(Nc1ccccc1-c1ccc2c(c1)OC[C@H](Cc1csc(-c3ccccc3)n1)[C@H]2O)C(F)(F)F (racemic) [Example 24, 1,1,1-Trifluoro-N-(2-((rac-trans)-4-hydroxy-3-((2-phenylthiazol-4-yl)methyl)chroman-7-yl)phenyl)methanesulfonamide] | 329
O=S(=O)(Nc1ccccc1-c1ccc2c(c1)OC[C@@H](Cc1cnc(-c3ccccc3)s1)[C@@H]2O)C(F)(F)F (racemic) [Example 41, 1,1,1-Trifluoro-N-(2-((rac-trans)-4-hydroxy-3-((2-phenylthiazol-5-yl)methyl)chroman-7-yl)phenyl)methanesulfonamide] | 225
O=S(=O)(CC(F)(F)F)Nc1nccnc1-c1ccc2c(c1)OC[C@@H](Cc1ccccn1)[C@@H]2O (single isomer, unassigned) [Example 76, 2,2,2-Trifluoro-N-(3-((3,4-trans)-4-hydroxy-3-(pyridin-2-ylmethyl)chroman-7-yl)pyrazin-2-yl)ethanesulfonamide] | 1860
O=S(=O)(Nc1ccccc1-c1ccc2c(c1)OC[C@H](Cc1csc(-c3ccccc3)n1)[C@H]2O)C(F)(F)F (single isomer, unassigned) [Example 65, 1,1,1-Trifluoro-N-(2-((3S,4R or 3R,4S)-4-hydroxy-3-((2-phenylthiazol-4-yl)-methyl)chroman-7-yl)-phenyl)methanesulfonamide] | 47
O=S(=O)(Nc1ccccc1-c1ccc2c(c1)OCC(Cc1cn[nH]c1)C2O)C(F)(F)F (racemic) [Example 12, N-(2-((3,4-Rac-trans)-3-((1H-pyrazol-4-yl)methyl)-4-hydroxychroman-7-yl)phenyl)-1,1,1-trifluoromethanesulfonamide] | 1650
Cc1cnc(C[C@H]2COc3cc(-c4ccccc4NS(=O)(=O)C(F)(F)F)ccc3[C@@H]2O)s1 (single isomer, unassigned) [Example 53, 1,1,1-trifluoro-N-(2-{(3R,4S or 3S,4R)-4-hydroxy-3-[(5-methyl-1,3-thiazol-2-yl)methyl]-3,4-dihydro-2H-chromen-7-yl}phenyl)methanesulfonamide] | 69
Cn1nc(-c2ccccc2)cc1C[C@@H]1COc2cc(-c3ccccc3NS(=O)(=O)C(F)(F)F)ccc2[C@H]1O (single isomer, unassigned) [Example 37, 1,1,1-Trifluoro-N-(2-((3R,4S or 3S,4R)-4-hydroxy-3-((1-methyl-3-phenyl-1H-pyrazol-5-yl)methyl)chroman-7-yl)phenyl)methanesulfonamide] | 754
O=S(=O)(Nc1ccccc1-c1ccc2c(c1)OC[C@@H](Cc1ccc(-c3ccccc3)cc1)[C@H]2O)C(F)(F)F (racemic) [Example 3, N-(2-((3,4-Rac-cis)-3-([1,1′-biphenyl]-4-ylmethyl)-4-hydroxychroman-7-yl)phenyl)-1,1,1-trifluoromethanesulfonamide] | 2290

Now from value to molecule:

EC50 [nM] | SMILES
414 | CS(=O)(=O)Nc1ccccc1-c1ccc2c(c1)OCC(Cc1ccccn1)C2O (racemic) [Example 30, N-(2-((3,4-Rac-trans)-4-hydroxy-3-(pyridin-2-ylmethyl)chroman-7-yl)phenyl)methanesulfonamide]
269 | Cc1cccnc1C[C@H]1COc2cc(-c3ccccc3NS(=O)(=O)C(F)(F)F)ccc2[C@@H]1O (single isomer, unassigned) [Example 60, 1,1,1-Trifluoro-N-(2-{(3,4-trans)-4-hydroxy-3-[(3-methylpyridin-2-yl)methyl]-3,4-dihydro-2H-chromen-7-yl}phenyl)methanesulfonamide]
210 | Cn1nccc1C[C@@H]1COc2cc(-c3ccccc3NS(=O)(=O)C(F)(F)F)ccc2[C@H]1O (single isomer, unassigned) [Example 66, 1,1,1-trifluoro-N-(2-{(3,4-trans)-4-hydroxy-3-[(1-methyl-1H-pyrazol-5-yl)methyl]-3,4-di-hydro-2H-chromen-7-yl}-phenyl)methanesulfonamide]
239 | O=S(=O)(Nc1ncccc1-c1ccc2c(c1)OC[C@@H](Cc1ccccn1)[C@@H]2O)C(F)(F)F (single isomer, unassigned) [Example 87, 1,1,1-Trifluoro-N-(3-((3,4-trans)-4-hydroxy-3-(pyridin-2-ylmethyl)chroman-7-yl)pyridin-2-yl)methanesulfonamide]
21 | O=S(=O)(Nc1ccccc1-c1ccc2c(c1)OCC(Cc1ccsc1)C2O)C(F)(F)F (racemic) [Example 8, 1,1,1-Trifluoro-N-(2-((3,4-rac-trans)-4-hydroxy-3-(thiophen-3-ylmethyl)chroman-7-yl)phenyl)methanesulfonamide]
412 | O=S(=O)(Nc1ccccc1-c1ccc2c(c1)OC[C@@H](Cc1ccncc1)[C@@H]2O)C(F)(F)F (single isomer, unassigned) [Example 25, 1,1,1-trifluoro-N-{2-[(3R,4S or 3S,4R)-4-hydroxy-3-(pyridin-4-ylmethyl)-3,4-dihydro-2H-chromen-7-yl]phenyl}methanesulfonamide]
105 | Cc1ccc(CC2COc3cc(-c4ccccc4NS(=O)(=O)C(F)(F)F)ccc3C2O)nc1 (racemic) [Example 11, 1,1,1-Trifluoro-N-(2-((3,4-rac-trans)-4-hydroxy-3-((5-methylpyridin-2-yl)methyl)chroman-7-yl)phenyl)methanesulfonamide]
55 | O=S(=O)(Nc1ccccc1-c1ccc2c(c1)OC[C@H](Cc1ccccn1)[C@H]2O)C(F)(F)F [Example 54, 1,1,1-trifluoro-N-{2-[(3S,4R)-4-hydroxy-3-(pyridin-2-ylmethyl)-3,4-dihydro-2H-chromen-7-yl]phenyl}-methanesulfonamide]
15 | O=S(=O)(Nc1ccccc1-c1ccc2c(c1)OC[C@@H](Cc1ccccn1)[C@@H]2O)C(F)F (single isomer, unassigned) [Example 81, 1,1-Difluoro-N-(2-((3R,4S or 3S,4R)-4-hydroxy-3-(pyridin-2-ylmethyl)chroman-7-yl)phenyl)methanesulfonamide]
3510 | O=S(=O)(Nc1ccccc1-c1ccc2c(c1)OCC(Cc1cccnc1)C2O)C(F)(F)F (racemic) [Example 7, 1,1,1-Trifluoro-N-(2-((3,4-rac-trans)-4-hydroxy-3-(pyridin-3-ylmethyl)chroman-7-yl)phenyl)methanesulfonamide]
14 | O=S(=O)(Nc1ccc(F)cc1-c1ccc2c(c1)OC[C@@H](Cc1ccccn1)[C@@H]2O)C(F)(F)F (single isomer, unassigned) [Example 83, 1,1,1-Trifluoro-N-(4-fluoro-2-((3,4-trans)-4-hydroxy-3-(pyridin-2-ylmethyl)chroman-7-yl)phenyl)methanesulfonamide]
240 | O=S(=O)(Nc1ccccc1-c1ccc2c(c1)OCC(Cc1cc[nH]n1)C2O)C(F)(F)F (racemic) [Example 6, N-(2-((3,4-Rac-trans)-3-((1H-pyrazol-3-yl)methyl)-4-hydroxychroman-7-yl)phenyl)-1,1,1-trifluoromethanesulfonamide]
2020 | O=S(=O)(Nc1ccccc1-c1ccc2c(c1)OC[C@@H](Cc1ccccn1)[C@@H]2O)C(F)(F)F [Example 55, 1,1,1-trifluoro-N-{2-[(3R,4S)-4-hydroxy-3-(pyridin-2-ylmethyl)-3,4-dihydro-2H-chromen-7-yl]phenyl}-methanesulfonamide]
125 | O=S(=O)(Nc1ccccc1-c1ccc2c(c1)OC[C@@H](Cc1cc[nH]n1)[C@@H]2O)C(F)(F)F (single isomer, unassigned) [Example 71, 1,1,1-trifluoro-N-{2-[(3,4-trans)-4-hydroxy-3-(1H-pyrazol-3-ylmethyl)-3,4-dihydro-2H-chromen-7-yl]phenyl}-methanesulfonamide]
35 | O=S(=O)(CC(F)(F)F)Nc1ccccc1-c1ccc2c(c1)OC[C@@H](Cc1ccccn1)[C@@H]2O (single isomer, unassigned) [Example 79, 2,2,2-Trifluoro-N-(2-((3R,4S or 3S,4R)-4-hydroxy-3-(pyridin-2-ylmethyl)chroman-7-yl)phenyl)ethanesulfonamide]
